Like-named read-outs stand apart in the source and are kept apart here.
Tested on: C. elegans
Test: microbe, parasite or virus in culture
Details: Caenorhabditis elegans
[1] = 0 h, read-out: Percentage of motility inhibition 0 h, Table S2, C. elegans SS assay, 110 μM, 0 h, averages of 4 data points
[2] = 24 h, read-out: Percentage of motility inhibition 24 h, Table S2, C. elegans SS assay, 110 μM, 24 h, averages of 4 data points
[3] = 0 h, read-out: Percentage of motility inhibition 0 h
[4] = 24 h, read-out: Percentage of motility inhibition 24 h

SMILES	inhibition at 110 µM [1]	inhibition at 110 µM [2]	inhibition at 110 µM [3]	inhibition at 110 µM [4]
O=C1C(O)=C([C@H]2CC[C@H](c3ccc(Cl)cc3)CC2)C(=O)c2ccccc21 [Atovaquone]	18%	2%	–	–
Cc1ccc2c(Cl)cc(Cl)c(O)c2n1 [Chlorquinaldol]	19%	38%	–	–
O=c1c2ccccc2[se]n1-c1ccccc1 [Ebselen]	13%	12%	–	–
CC(C)=CCC[C@](C)(O[C@@H]1O[C@H](CO[C@@H]2O[C@H](CO)[C@@H](O)[C@H](O)[C@H]2O)[C@@H](O)[C@H](O)[C@H]1O)[C@H]1CC[C@]2(C)[C@@H]1[C@H](O)C[C@@H]1[C@@]3(C)CC[C@H](O[C@@H]4O[C@H](CO)[C@@H](O)[C@H](O)[C@H]4O[C@@H]4O[C@H](CO)[C@@H](O)[C@H](O)[C@H]4O)C(C)(C)[C@@H]3CC[C@]12C [Ginsenoside Rb1]	4%	0%	–	–
C[C@@H]1O[C@@H](OC[C@H]2O[C@@H](Oc3cc(O)c4c(c3)O[C@H](c3ccc(O)cc3)CC4=O)[C@H](O)[C@@H](O)[C@@H]2O)[C@H](O)[C@H](O)[C@H]1O [Narirutin]	39%	19%	–	–
O=C(/C=C/c1ccc(O[C@@H]2O[C@H](CO)[C@@H](O)[C@H](O)[C@H]2O)cc1)c1ccc(O)cc1O [Isoliquiritin]	24%	2%	–	–
CC1=CC(=O)C(C(C)C)CC1 (stereo not drawn) [Piperitone]	10%	11%	–	–
CC(=O)c1ccc[nH]1 [2‐Acetylpyrrole]	26%	18%	–	–
COc1c(O[C@@H]2O[C@H](CO)[C@@H](O)[C@H](O)[C@H]2O)cc2occ(-c3ccc(O)cc3)c(=O)c2c1O [Tectoridin]	1%	11%	–	–
CCN1CCN(C(=O)N[C@@H](C(=O)N[C@@H]2C(=O)N3C(C(=O)O)=C(CSc4nnnn4C)CS[C@H]23)c2ccc(O)cc2)C(=O)C1=O [Cefoperazone]	22%	7%	–	–
CCN(CC)CCNc1ccc(CO)c2sc3ccccc3c(=O)c12 [Hycanthone]	31%	26%	–	–
COc1ccc2c(c1OC)CN1CCc3cc4c(cc3C1C2)OCO4 (stereo not drawn) [Tetrahydroberberine]	2%	0%	–	–
C[C@]12CC[C@@H]3c4ccc(O)cc4CC[C@H]3[C@@H]1C[C@@H](O)[C@@H]2O [Estriol]	2%	10%	–	–
CC1(C)CC[C@]2(C(=O)O)CC[C@]3(C)C(=CC[C@@H]4[C@@]5(C)C[C@@H](O)[C@H](O)[C@@](C)(CO)[C@@H]5[C@H](O)C[C@]43C)[C@@H]2C1 [Terminolic acid]	26%	10%	–	–
c1cncc([C@@H]2CCCCN2)c1 [Anabasine]	0%	0%	–	–
COC(=O)C1=CO[C@@H](O[C@@H]2O[C@H](CO)[C@@H](O)[C@H](O)[C@H]2O)[C@@H]2C(CO)=CC[C@H]12 [Geniposide]	0%	0%	–	–
Cc1onc(-c2ccccc2)c1C(=O)N1CCN(c2ccc([N+](=O)[O-])cc2Cl)CC1 [Nucleozin]	17%	8%	–	–
C=C1C[C@@]23CC[C@H]4[C@@](C)(CCC[C@@]4(C)C(=O)O[C@@H]4O[C@H](CO)[C@@H](O)[C@H](O)[C@H]4O)[C@@H]2CC[C@]1(O[C@@H]1O[C@H](CO)[C@@H](O)[C@H](O)[C@H]1O)C3 [Rubusoside]	0%	18%	–	–
COc1cc(O)c2c(=O)cc(-c3ccc(O)c(OC)c3)oc2c1 [Velutin]	11%	19%	–	–
CC(C)=CCC[C@](C)(O[C@@H]1O[C@H](CO[C@@H]2OC[C@@H](O)[C@H](O)[C@H]2O)[C@@H](O)[C@H](O)[C@H]1O)[C@H]1CC[C@]2(C)[C@@H]1[C@H](O)C[C@@H]1[C@@]3(C)CC[C@H](O[C@@H]4O[C@H](CO)[C@@H](O)[C@H](O)[C@H]4O[C@@H]4O[C@H](CO)[C@@H](O)[C@H](O)[C@H]4O)C(C)(C)[C@@H]3CC[C@]12C [Ginsenoside Rb3]	6%	1%	–	–

SMILES	inhibition at 110 µM [1]	inhibition at 110 µM [2]	inhibition at 110 µM [3]	inhibition at 110 µM [4]
COc1ccc2c(O[C@@H]3C[C@H]4C(=O)N[C@]5(C(=O)NS(=O)(=O)C6CC6)C[C@H]5/C=C\CCCCN(C)C(=O)[C@@H]4C3)cc(-c3nc(C(C)C)cs3)nc2c1C [Simeprevir]	2%	25%	–	–
O=c1c(O[C@@H]2O[C@H](CO)[C@H](O)[C@H](O)[C@H]2O)c(-c2ccc(O)c(O)c2)oc2cc(O)cc(O)c12 [Hyperoside]	14%	11%	–	–
Nc1ccc(S(=O)(=O)Nc2ncccn2)cc1 [Sulfadiazine]	14%	7%	–	–
C[C@@H](O)[C@H]1C(=O)N2C(C(=O)O)=C(SC3CN(C4=NCCS4)C3)[C@H](C)[C@H]12 [Tebipenem]	0%	7%	–	–
C=C1CCC2(C(C)C)CC12 (stereo not drawn) [Sabinene]	0%	20%	–	–
Oc1ccc(Cl)cc1Cc1cc(Cl)ccc1O [Dichlorophen]	15%	0%	–	–
[H]/N=C(/N)NS(=O)(=O)c1ccc(N)cc1 [Sulfaguanidine]	22%	8%	–	–
CC1=C[C@H](O)CC(C)(C)[C@H]1/C=C/C(C)=C/C=C/C(C)=C/C=C/C=C(C)/C=C/C=C(C)/C=C/C1=C(C)C[C@@H](O)CC1(C)C [Lutein]	–	–	13%	0%
COc1cc2c3c(c1OC)-c1ccccc1C[C@H]3N(C)CC2 [Nuciferine]	0%	16%	–	–
O=c1c(O)c(-c2ccc(O)cc2)oc2cc(O)cc(O)c12 [Kaempferol]	0%	25%	–	–
COc1cc(CNC(=O)CCCCCCC(C)C)ccc1O [Dihydrocapsaicin]	0%	7%	–	–
COc1ccc(-c2coc3cc(O)ccc3c2=O)cc1O [Calycosin]	–	–	16%	1%
C=C(CC[C@@H](C(=O)O)[C@H]1[C@H](O)C[C@@]2(C)C3=CC[C@H]4C(C)(C)[C@@H](O)CC[C@]4(C)C3=CC[C@]12C)C(C)C [Dehydrotumulosic acid]	11%	21%	–	–
N[C@@H](Cc1ccc(O)cc1)C(=O)O [L-Tyrosine]	–	–	34%	8%
COc1ccc(C[C@@H]2c3cc(Oc4cc(C[C@@H]5c6cc(OC)c(OC)cc6CCN5C)ccc4O)c(OC)cc3CCN2C)cc1 [Neferine]	–	–	25%	9%
COC1=CC(=O)C[C@@H](C)[C@]12Oc1c(Cl)c(OC)cc(OC)c1C2=O [Griseofulvin]	3%	1%	–	–
C=C(C)[C@@H]1CCC2=CC(=O)C[C@@H](C)[C@]2(C)C1 [Nootkatone]	28%	20%	–	–
CC(C)=CCc1c(O)c(CC=C(C)C)c2oc3c(O)cccc3c(=O)c2c1O [8‐Deoxygartanin]	14%	0%	–	–
C[C@@H]1C/C=C/C=C/C=C/C=C/[C@H](O[C@@H]2O[C@H](C)[C@@H](O)[C@H](N)[C@@H]2O)C[C@@H]2O[C@](O)(C[C@@H](O)C[C@H]3O[C@@H]3/C=C/C(=O)O1)C[C@H](O)[C@H]2C(=O)O [Natamycin]	26%	0%	–	–
